Assay [1] deals with isolated recombinant JAK1 kinase domain (Homo sapiens (Human), UniProt P23458). In words: JAK1 enzyme assay (Caliper LabChip, peptide phosphorylation). As to conditions: isolated recombinant JAK1 kinase domain, 25 μM ATP. It is filed as biochemical.
The target in assay [2] is isolated recombinant JAK2 kinase domain (Homo sapiens (Human), UniProt O60674). In words: JAK2 enzyme assay (Caliper LabChip, peptide phosphorylation). The note with it: 25 μM ATP. The format is biochemical.
In assay [3] the test system is JAK1-dependent STAT6 phosphorylation downstream of IL-13 stimulation in TF-1 human erythroleukemia cells. In words: JAK1 pathway assay in TF-1 cells (IL-13-pSTAT6, MSD). It is filed as cell-based. As to conditions: Homo sapiens, TF-1, TF-1 cells, read-out: IL13-pSTAT6 EC50_TF-1. In a few lines: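 BEAS-2B: complete growth medium, compound 1 hr at 37° C. TF-1: GM-CSF-starved overnight, serum-free OptiMEM, compound 30 min.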

By Ki is commonly meant the equilibrium dissociation constant of an inhibitor or competing ligand from its target.

Chain of isolated recombinant JAK2 kinase domain (O60674 849-1124): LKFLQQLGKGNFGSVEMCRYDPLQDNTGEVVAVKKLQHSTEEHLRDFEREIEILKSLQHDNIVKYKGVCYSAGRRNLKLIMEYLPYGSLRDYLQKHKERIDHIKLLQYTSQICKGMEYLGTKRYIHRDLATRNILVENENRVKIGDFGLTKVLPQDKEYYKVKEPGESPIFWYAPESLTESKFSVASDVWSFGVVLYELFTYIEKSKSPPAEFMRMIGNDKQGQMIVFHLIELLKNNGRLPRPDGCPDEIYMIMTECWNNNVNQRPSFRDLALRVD
Chain of isolated recombinant JAK1 kinase domain (P23458 875-1153): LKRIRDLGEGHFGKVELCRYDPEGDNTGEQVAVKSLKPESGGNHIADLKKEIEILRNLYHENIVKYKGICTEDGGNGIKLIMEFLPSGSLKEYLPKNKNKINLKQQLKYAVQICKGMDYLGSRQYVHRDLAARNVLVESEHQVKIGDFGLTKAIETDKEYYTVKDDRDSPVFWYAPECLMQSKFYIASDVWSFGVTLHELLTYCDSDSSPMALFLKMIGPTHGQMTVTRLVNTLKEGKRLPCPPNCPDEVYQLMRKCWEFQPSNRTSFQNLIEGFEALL

As for `CN(CC1(C#N)CCCCC1)C1CCN(C(=O)Cn2cc(NC(=O)c3cnn4cccnc34)c(-c3cc(Cl)ccc3OC(F)F)n2)CC1` [Example 114, N-[3-[5-chloro-2-(difluoromethoxy)phenyl]-1-[2-[4-[(1-cyanocyclohexyl)methyl-methyl-amino]-1-piperidyl]-2-oxo-ethyl]pyrazol-4-yl]pyrazolo[1,5-a]pyrimidine-3-carboxamide], the values for the Ki in assay [1] and in assay [2] were 0.52 nM and 1.34 nM, respectively. Moreover, in assay [3], the EC50 was determined as 15.3 nM.
In the same order, the values of `CCCCN(CC(F)(F)F)C1CCN(C(=O)Cn2cc(NC(=O)c3cnn4cccnc34)c(-c3cc(Cl)ccc3OC(F)F)n2)CC1` [Example 115, N-[1-[2-[4-[butyl(2,2,2-trifluoroethyl)amino]-1-piperidyl]-2-oxo-ethyl]-3-[5-chloro-2-(difluoromethoxy)phenyl]pyrazol-4-yl]pyrazolo[1,5-a]pyrimidine-3-carboxamide] are 1.28 nM, 2.48 nM and 57.7 nM.
On to `O=C(Nc1cn(CC(=O)N2CCC(N(Cc3ccccc3)CC(F)(F)F)CC2)nc1-c1cc(Cl)ccc1OC(F)F)c1cnn2cccnc12` [Example 116, N-[1-[2-[4-[benzyl(2,2,2-trifluoroethyl)amino]-1-piperidyl]-2-oxo-ethyl]-3-[5-chloro-2-(difluoromethoxy)phenyl]pyrazol-4-yl]pyrazolo[1,5-a]pyrimidine-3-carboxamide], for which the Ki in assay [1] is 3.76 nM; in assay [2], 7.04 nM. Moreover, the EC50 in assay [3] was 23.3 nM.
The matching figures for `CN(Cc1ccc(Br)cc1)C1CCN(C(=O)Cn2cc(NC(=O)c3cnn4cccnc34)c(-c3cc(Cl)ccc3OC(F)F)n2)CC1` [Example 119, N-[1-[2-[4-[(4-bromophenyl)methyl-methyl-amino]-1-piperidyl]-2-oxo-ethyl]-3-[5-chloro-2-(difluoromethoxy)phenyl]pyrazol-4-yl]pyrazolo[1,5-a]pyrimidine-3-carboxamide]: 1.21 nM, 0.51 nM and 20.8 nM.
As to `CN(Cc1ccc(C(C)(C)C)cc1)C1CCN(C(=O)Cn2cc(NC(=O)c3cnn4cccnc34)c(-c3cc(Cl)ccc3OC(F)F)n2)CC1` [Example 120, N-[1-[2-[4-[(4-tert-butylphenyl)methyl-methyl-amino]-1-piperidyl]-2-oxo-ethyl]-3-[5-chloro-2-(difluoromethoxy)phenyl]pyrazol-4-yl]pyrazolo[1,5-a]pyrimidine-3-carboxamide], the Ki in assay [1] is 0.3 nM; in assay [2] it was 0.23 nM. Further, the EC50 in assay [3] was found to be 118 nM.
In the same order, the values of `CN(Cc1ccc(Cl)c(Cl)c1)C1CCN(C(=O)Cn2cc(NC(=O)c3cnn4cccnc34)c(-c3cc(Cl)ccc3OC(F)F)n2)CC1` [Example 121, N-[3-[5-chloro-2-(difluoromethoxy)phenyl]-1-[2-[4-[(3,4-dichlorophenyl)methyl-methyl-amino]-1-piperidyl]-2-oxo-ethyl]pyrazol-4-yl]pyrazolo[1,5-a]pyrimidine-3-carboxamide] are 0.24 nM, 0.31 nM and 140 nM.
Consider `CN(Cc1cccc(Br)c1)C1CCN(C(=O)Cn2cc(NC(=O)c3cnn4cccnc34)c(-c3cc(Cl)ccc3OC(F)F)n2)CC1` [Example 122, N-[1-[2-[4-[(3-bromophenyl)methyl-methyl-amino]-1-piperidyl]-2-oxo-ethyl]-3-[5-chloro-2-(difluoromethoxy)phenyl]pyrazol-4-yl]pyrazolo[1,5-a]pyrimidine-3-carboxamide], for which the figures for the Ki in assay [1] and in assay [2] were 0.27 nM and 0.17 nM, respectively. Further, the EC50 in assay [3] turned out to be 24.9 nM.
The matching figures for `CC(C)Oc1ccc(CN(C)C2CCN(C(=O)Cn3cc(NC(=O)c4cnn5cccnc45)c(-c4cc(Cl)ccc4OC(F)F)n3)CC2)cc1` [Example 125, N-[3-[5-chloro-2-(difluoromethoxy)phenyl]-1-[2-[4-[(4-isopropoxyphenyl)methyl-methyl-amino]-1-piperidyl]-2-oxo-ethyl]pyrazol-4-yl]pyrazolo[1,5-a]pyrimidine-3-carboxamide]: 0.61 nM, 2.2 nM and 11.7 nM.

Values taken from US9346815B2, “5-chloro-2-difluoromethoxyphenyl pyrazolopyrimidine compounds, compositions and methods of use thereof” (Genentech, Inc., priority 2014, dated 2016).
